Results published in US20080064667A1, “OXAZOLE DERIVATIVES OF TETRACYCLINES” (Wyeth, priority 2003, published 2008).

Experiments:
Assay in all cases: MIC, broth microdilution (NCCLS)
Format in all cases: cell-based
[1] = system: H. influenzae<> GC6896 (ATCC Control); conditions: Haemophilus influenzae, Mueller-Hinton II broth, 18-22 hours at 35° C.
How it was run: (§1)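 MICs determined in cation-standard Mueller-Hinton II broth with serial drug dilutions, each strain inoculated to 10^5 CFU/ml. Incubation: 35 °C, ambient air, 18-22 h, following NCCLS broth microdilution guidance.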

[2] = system: S. pyogenes* GC4563 (Clinical); conditions: Streptococcus pyogenes, Mueller-Hinton II broth, 18-22 hours at 35° C.
How it was run: as §1

[3] = system: S. aureus GC6466 (tet(M)); conditions: Staphylococcus aureus, Mueller-Hinton II broth, 18-22 hours at 35° C.
How it was run: as §1

[4] = system: E. coli GC4560 (IMP mutant); conditions: Escherichia coli
How it was run: as §1

[5] = system: S. pneumoniae* GC4465 (Clinical); conditions: Streptococcus pneumoniae, Mueller-Hinton II broth, 18-22 hours at 35° C.
How it was run: as §1

E. coli GC1073 (tet(B)) = conditions: Escherichia coli
How it was run: as §1

[6] = system: S. aureus GC1079 (tet(K)); conditions: Staphylococcus aureus, Mueller-Hinton II broth, 18-22 hours at 35° C.
How it was run: as §1

[7] = system: E. coli GC2203 (ATCC Control); conditions: Escherichia coli, Mueller-Hinton II broth, 18-22 hours at 35° C.
How it was run: as §1

[8] = system: E. faecalis GC2242 (Van-resistant); conditions: Enterococcus faecalis, Mueller-Hinton II broth, 18-22 hours at 35° C.
How it was run: as §1

E. coli GC2270 (tet(M)) = conditions: Escherichia coli
How it was run: as §1

[9] = system: S. aureus GC1131 (Clinical); conditions: Staphylococcus aureus, Mueller-Hinton II broth, 18-22 hours at 35° C.
How it was run: as §1

[10] = system: E. coli GC4559 (parent GC4560); conditions: Escherichia coli, Mueller-Hinton II broth, 18-22 hours at 35° C.
How it was run: as §1

[11] = system: C. albicans GC3066 ATCC (Control); conditions: Candida albicans, Mueller-Hinton II broth, 18-22 hours at 35° C.
[12] = system: S. pneumoniae* GC1894 (Clinical); conditions: Streptococcus pneumoniae, Mueller-Hinton II broth, 18-22 hours at 35° C.
How it was run: as §1

[13] = system: M. catarrhalis* GC6907 (Clinical); conditions: Moraxella catarrhalis, Mueller-Hinton II broth, 18-22 hours at 35° C.
How it was run: as §1

[14] = system: E. faecalis GC4555 (ATCC Control); conditions: Enterococcus faecalis, Mueller-Hinton II broth, 18-22 hours at 35° C.
How it was run: as §1

[15] = system: S. aureus GC6467 (tet(M) + (K)); conditions: Staphylococcus aureus
How it was run: as §1

[16] = system: S. aureus GC4536 (Smith MP -In Vivo); conditions: Staphylococcus aureus, Mueller-Hinton II broth, 18-22 hours at 35° C.
How it was run: as §1

[17] = system: S. aureus GC2216 (ATCC Control); conditions: Staphylococcus aureus, Mueller-Hinton II broth, 18-22 hours at 35° C.
How it was run: as §1

[18] = system: E. faecalis GC2267 (tet(L) + (M) + (S)); conditions: Enterococcus faecalis
How it was run: as §1

Measured: MIC

CN(C)c1cc2nc(-c3ccc4c(c3)OCO4)oc2c2c1C[C@H]1C[C@H]3[C@H](N(C)C)C(O)=C(C(N)=O)C(=O)[C@@]3(O)C(O)=C1C2=O [Example 14, (6aR,7aS,8S,11aS)-2-(1,3-benzodioxol-5-yl)-5,8-bis(dimethylamino)-9,11a,12-trihydroxy-11,13-dioxo-6,6a,7,7a,8,11,11a,13-octahydrotetraceno[2,1-d][1,3]oxazole-10-carboxamide]
16 µg/mL: [2] | [4] | [5] | [12]
> 64 µg/mL: [1] | E. coli GC1073 (tet(B)) | [7] | E. coli GC2270 (tet(M)) | [10] | [11]
8 µg/mL: [14] | [15]
not listed: [18]
4 µg/mL: all other assays above

CCCCCCOc1ccc(-c2nc3cc(N(C)C)c4c(c3o2)C(=O)C2=C(O)[C@]3(O)C(=O)C(C(N)=O)=C(O)[C@@H](N(C)C)[C@@H]3C[C@@H]2C4)cc1 [Example 32, (6aR,7aS,8S,11aS)-5,8-bis(dimethylamino)-2-[4-(hexyloxy)phenyl]-9,11a,12-trihydroxy-11,13-dioxo-6,6a,7,7a,8,11,11a,13-octahydrotetraceno[2,1-d][1,3]oxazole-10-carboxamide]
8 µg/mL: [12]
16 µg/mL: [2] | [5]
32 µg/mL: [13]
64 µg/mL: [8] | [14]
> 64 µg/mL: all other assays above

CN(C)c1cc2nc(CCl)oc2c2c1C[C@H]1C[C@H]3[C@H](N(C)C)C(O)=C(C(N)=O)C(=O)[C@@]3(O)C(O)=C1C2=O [Example 35, (6aR,7aS,8S,11aS)-2-(chloromethyl)-5,8-bis(dimethylamino)-9,11a,12-trihydroxy-11,13-dioxo-6,6a,7,7a,8,11,11a,13-octahydrotetraceno[2,1-d][1,3]oxazole-10-carboxamide]
0.25 µg/mL: [2] | [12]
8 µg/mL: [10] | [15]
> 64 µg/mL: [11]
2 µg/mL: [1]
32 µg/mL: E. coli GC1073 (tet(B))
4 µg/mL: [18] | [6] | [7]
1 µg/mL: [3] | [8] | [14] | [16]
16 µg/mL: E. coli GC2270 (tet(M))
0.5 µg/mL: all other assays above

CN(C)c1cc2nc(CN3CCCC3)oc2c2c1C[C@H]1C[C@H]3[C@H](N(C)C)C(O)=C(C(N)=O)C(=O)[C@@]3(O)C(O)=C1C2=O [Example 37, (6aR,7aS,8S,11aS)-5,8-bis(dimethylamino)-9,11a,12-trihydroxy-11,13-dioxo-2-(pyrrolidin-1-ylmethyl)-6,6a,7,7a,8,11,11a,13-octahydrotetraceno[2,1-d][1,3]oxazole-10-carboxamide]
1 µg/mL: [2] | [4] | [5] | [12] | [13]
8 µg/mL: [15]
2 µg/mL: [7] | [8] | [10] | [14]
> 64 µg/mL: [11]
not listed: E. coli GC1073 (tet(B))
4 µg/mL: all other assays above

CCCNCc1nc2cc(N(C)C)c3c(c2o1)C(=O)C1=C(O)[C@]2(O)C(=O)C(C(N)=O)=C(O)[C@@H](N(C)C)[C@@H]2C[C@@H]1C3 [Example 38, (6aR,7aS,8S,11aS)-5,8-bis(dimethylamino)-9,11a,12-trihydroxy-11,13-dioxo-2-[(propylamino)methyl]-6,6a,7,7a,8,11,11a,13-octahydrotetraceno[2,1-d][1,3]oxazole-10-carboxamide]
4 µg/mL: [2] | [5] | [12] | [13]
8 µg/mL: [4]
16 µg/mL: [8] | [14] | [16]
> 64 µg/mL: [11] | [15]
64 µg/mL: [1] | [18] | [6]
not listed: E. coli GC1073 (tet(B)) | E. coli GC2270 (tet(M))
32 µg/mL: all other assays above

CCCCNCc1nc2cc(N(C)C)c3c(c2o1)C(=O)C1=C(O)[C@]2(O)C(=O)C(C(N)=O)=C(O)[C@@H](N(C)C)[C@@H]2C[C@@H]1C3 [Example 39, (6aR,7aS,8S,11aS)-2-[(butylamino)methyl]-5,8-bis(dimethylamino)-9,11a,12-trihydroxy-11,13-dioxo-6,6a,7,7a,8,11,11a,13-octahydrotetraceno[2,1-d][1,3]oxazole-10-carboxamide]
8 µg/mL: [2] | [4] | [5] | [12] | [13]
> 64 µg/mL: [11] | [15]
64 µg/mL: [1] | [18] | [6]
not listed: E. coli GC1073 (tet(B)) | E. coli GC2270 (tet(M))
32 µg/mL: all other assays above
